Results taken from patent US5618818A, “Muscarinic agonist compounds” (The University of Toledo, priority 1996, dated 1997).
Where a name gives a salt, the structure may show the parent alone.

Biological target: muscarinic receptors in the rat central nervous system
Assay: Binding affinity at muscarinic receptors in the rat central nervous system, [^3 H]-QNB IC50
Conditions: mean from one to three experiments, each in triplicate
Excerpt: Binding affinities and agonist activity in a series of
amidine derivatives at muscarinic receptors in the rat
central nervous system. Data represent the mean from one
to three experiments, each performed in triplicate.

- IC50: 50 µM
Compound: CN(C)NC(=O)C1CN=C(N)NC1 (stereo not shown) [CDD-0126-A, 2-Amino-1,4,5,6-tetrahydropyrimidine-5-carboxylic-(N,N-dimethyl)hydrazide HCl]
